The values that follow are results of earlier work, collected in patent US20110223258A1 (priority 2008, published 2011).

The conditions of this series: aqueous solution.

`O=P([O-])(O)O.O=P([O-])(O)O.O=P([O-])(O)O.[Fe+3]` [Fe(H2PO4)3, iron(III) dihydrogen phosphate]: the Stability in solution entry is “decomposes in the solution as a result of hydrolysis”.
